In publication PMC6344527, “Toxicity and possible mechanisms of action of honokiol from Magnolia denudata seeds against four mosquito species” (Scientific Reports, 2019):
Values after ≈ are worked out from the molar mass of the structure shown. Like-named read-outs stand apart in the source and are kept apart here.

Assays:
[1] = biological target: acetylcholinesterase (AChE) from third-instar Ae. aegypti larvae (Aedes aegypti, UniProt A4GND7); experiment: acetylcholinesterase inhibition assay; type: biochemical; details: based on IC50 values
acetylcholinesterase (AChE) from third-instar Ae. aegypti larvae, sequence (A4GND7 37-679): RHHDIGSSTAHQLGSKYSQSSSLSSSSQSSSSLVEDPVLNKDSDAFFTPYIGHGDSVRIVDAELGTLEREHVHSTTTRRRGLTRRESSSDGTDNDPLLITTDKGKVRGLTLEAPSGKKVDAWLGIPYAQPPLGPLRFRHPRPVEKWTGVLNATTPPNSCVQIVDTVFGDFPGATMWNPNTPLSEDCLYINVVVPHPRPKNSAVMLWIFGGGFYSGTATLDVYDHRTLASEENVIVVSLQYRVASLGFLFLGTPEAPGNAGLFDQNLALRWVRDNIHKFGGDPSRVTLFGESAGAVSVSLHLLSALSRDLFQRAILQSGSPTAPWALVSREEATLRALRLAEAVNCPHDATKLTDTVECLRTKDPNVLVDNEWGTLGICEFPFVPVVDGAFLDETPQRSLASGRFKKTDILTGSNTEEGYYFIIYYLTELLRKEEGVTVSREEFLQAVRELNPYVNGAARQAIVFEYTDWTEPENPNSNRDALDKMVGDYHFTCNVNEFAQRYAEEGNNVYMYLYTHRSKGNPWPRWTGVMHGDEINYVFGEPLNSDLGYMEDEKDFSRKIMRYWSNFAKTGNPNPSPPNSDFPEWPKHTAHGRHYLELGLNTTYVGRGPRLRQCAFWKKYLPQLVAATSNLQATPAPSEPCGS
Method: The in vitro AChE inhibitory activity of the test compounds was assessed according to the method of Perumalsamy et al.[42]. Third-instar Ae. aegypti larvae were used in all experiments. Whole bodies of 50 larvae were homogenized in 1 mL of ice-cold 0.1 M phosphate buffer (pH 8.0) using a glass tissue homogenizer. After filtering through cheesecloth, the homogenate was centrifuged at 1,000 × g at 4 °C for 5 min. The supernatant was used directly as the enzyme source for AChE. The protein levels were determined using the Bradford Protein Assay Kit (Bio-Rad Laboratories, Hercules, CA, USA) using BSA as the standard. The reaction mixture consisted of 50 µL of the crude enzyme preparation (4.3–4.8 µg protein equivalents), 150 µL of 0.1 M phosphate buffer, 20 µL of 3 mM DTNB in phosphate buffer (pH 7.0), and 1 µL of various concentrations of each test compound in ethanol. The reaction mixture was incubated at 30 °C for 5 min, and 20 µL of 32 mM ATChI was then added to the mixture. After incubation for 30 min, the reaction was terminated by adding 20 µL of 5 mM eserine salicylate. Absorbance was recorded at 412 nm using a VersaMax microplate reader (Molecular Devices, Sunnyvale, CA, USA). […] The results are expressed as the means ± standard errors (SEs) of triplicate samples from three independent experiments.
(§1) The concentration of the test compounds required to produce 50% AChE inhibitory activity (IC50) was determined using the SAS 9.13 program (Cary: SAS Institute; 2014). Concentration-mortality data were subjected to probit analysis using the SAS 9.13 program. […] Statistical analyses were performed using the SAS 9.13 program. Multiple linear regression and correlation analysis were performed using the SPSS 24 program (Armonk: IBM Corp.; 2016).

[2] = tested on: third-instar larvae of insecticide-susceptible Aedes aegypti; experiment: contact mortality bioassay, 24 h exposure; type: in vivo; details: Table 7, structure-activity series, 24 h exposure; for LC50: Aedes aegypti, 24 h, read-out: LC50 (mg/L) (95% CI)
Method: (§2) A contact mortality bioassay[25] was used to evaluate the toxicity of all compounds against third-instar larvae of the four mosquito species. Each test compound in methanol was suspended in DW with Triton X-100 (20 µL/L). Groups of 20 mosquito larvae were separately placed into paper cups (270 mL) containing each compound solution (250 mL). […] Negative controls consisted of a methanol–Triton X-100 solution in DW.
(§3) Treated and control (methanol–Triton X-100 solution only) larvae were maintained under the same conditions as those used for colony maintenance without providing food. Larval mortalities were determined 24 h post-treatment. […] All treatments were performed three times using 20 larvae per replicate.
as §1

[3] = tested on: third-instar larvae of insecticide-susceptible Culex pipiens pallens; experiment: contact mortality bioassay, 24 h exposure; type: in vivo; details: Table 6, structure-activity series, 24 h exposure; for LC50: Culex pipiens, 24 h, read-out: LC50 (mg/L) (95% CI)
Method: as §2, §3, §1

mosquito species larvae = details: cited from earlier work
[4] = tested on: whole-body homogenate from third-instar Aedes aegypti larvae (adenylate cyclase activity); experiment: determination of cyclic AMP levels (octopamine-sensitive adenylate cyclase activity); type: biochemical; details: 100 μM; compared with control group / octopamine
Method: The method of Perumalsamy et al.[42] was used to assess the in vitro octopamine-sensitive adenylate cyclase activity of the test compounds. In brief, whole bodies of 75 Ae. aegypti larvae (106.2 mg) were homogenized in 500 µL of 2 mM Tris-maleate buffer (pH 7.4) containing 0.8 mM ethylene glycol tetraacetic acid (EGTA). The adenylate cyclase activity was determined using the cAMP Biotrak Enzymeimmunoassay system according to the manufacturer’s protocol. The assay was conducted in a total volume of 100 µL containing 80 mM Tris-maleate buffer, 5 mM theophylline, 2 mM MgSO4, 0.5 mM adenosine triphosphate (ATP), 0.2 mM EGTA, 50 µL of whole-body homogenate (equivalent to 4.12 µg protein), and 1 µL of the test compounds in Tris-maleate buffer containing 0.2% ethanol. After incubation at 20 °C for 5 min, the reaction was initiated by addition of ATP. Incubation was performed at 30 °C for 3 min in a shaking water bath. The reaction was stopped by boiling for 2 min, and then, the assay tube was cooled and centrifuged at 8,000 × g for 10 min. Fifty microliters of the supernatant were assayed for cAMP levels.
Polystyrene microplates (1 strip of 8 wells) coated with a goat anti-mouse polyclonal antibody were used. Fifty microliters of a mouse monoclonal antibody solution were added to each well except for the blank wells (or the nonspecific binding wells). The wells covered with the adhesive strip were incubated at 25 °C for 1 h in a shaking incubator (480 rpm). After washing with 400 µL of wash buffer four times, 50 μL of the two neolignan samples for cAMP determination and cAMP standard were added to wells. Control, blank (nonspecific binding), and zero standard wells were supplemented with 50 μL of a diluent RD5-55 buffer. […] The optical densities at 450 and 540 nm were determined using the microplate reader described above. The readings at 540 nm were subtracted from the readings at 450 nm. The cAMP concentrations are expressed as nmol/µg protein. The results are expressed as the means ± SEs of triplicate samples from three independent experiments.

| Molecule | LC50 [2] | LC90 (mg/L) (95% CI) [2] | LC50 [3] | LC90 (mg/L) (95% CI) [3] | further results |
| --- | --- | --- | --- | --- | --- |
| C=CCc1cccc(OC)c1O [o-Eugenol, o-eugenol] | 8.84 mg/L (≈ 53.8 µM) | 24.01 (19.52–33.06) mg/L | 7.46 mg/L (≈ 45.4 µM) | 23.13 (18.42–33.49) mg/L | AChE inhibitory activity (in words) [1]: relatively weak AChE inhibitors |
| COc1ccccc1O [Guaiacol, guaiacol] | 115 mg/L (≈ 930 µM) | 223.1 (188.3–292.1) mg/L | 108 mg/L (≈ 868 µM) | 205.6 (176.3–260.9) mg/L | – |
| CC(C)=C1C[C@H]2C(=C(C)CC1=O)CC[C@]2(C)O [neoprocurcumenol] | – | – | – | – | LC50 (mosquito species larvae; terpenoids): 13.69 µg/mL (≈ 58.4 µM) |
| (−)-asarinin | – | – | – | – | LC50 (mosquito species larvae; lignans): 10.49 to 16.49 µg/mL |
| C=CCc1cc(OC)c(O)c(OC)c1 [Methoxyeugenol, methoxyeugenol] | 9.15 mg/L (≈ 47.1 µM) | 29.46 (22.83–44.88) mg/L | 8.4 mg/L (≈ 43.2 µM) | 25.52 (20.27–36.92) mg/L | AChE inhibitory activity (in words) [1]: lowest of all of the compounds that were examined |
| N#C[C@@H](O[C@@H]1O[C@H](CO)[C@@H](O)[C@H](O)[C@H]1O)c1ccc(O)cc1 [dhurrin] | – | – | – | – | LC50 (mosquito species larvae; cyanogenic glycosides): 12 µg/mL (≈ 38.5 µM) |
| NCC(O)c1ccc(O)cc1 (centres unmarked) [octopamine, reference compound] | – | – | – | – | cAMP levels [4]: did not differ significantly |
| C=C[C@H](O)C#CC#CC/C=C\CCCCCCC [falcarinol] | – | – | – | – | LC50 (mosquito species larvae; acetylenic alcohols): 3.49 µg/mL (≈ 14.3 µM) |
| isoeugenol | – | 137.2 (124.3–161.2) mg/L | – | 138.1 (124.4–164.5) mg/L | – |
| C=C[C@@H](O)C#CC#C[C@@H](O)/C=C\CCCCCCC [falcarindiol] | – | – | – | – | LC50 (mosquito species larvae; acetylenic alcohols): 6.51 µg/mL (≈ 25 µM) |
| O=C(O)/C=C/c1ccc(O)c(O)c1 [Caffeic acid, caffeic acid] | 124 mg/L (≈ 691 µM) | 235.9 (204.2–296.1) mg/L | 119 mg/L (≈ 662 µM) | 245.6 (208.1–323.3) mg/L | – |
